Results taken from patent US20260085053A1, “BENZOFURAN DERIVATIVES AS SIK INHIBITORS AND THE USE THEREOF” (BEONE MEDICINES I GMBH, priority 2023, published 2026).

Columns and labels:
[1] = target: T1, SIK1 kinase (aa1-303, Thermo Fisher) (Homo sapiens, UniProt P57059); assay: Biochemical activities determination for SIK1 protein (TR-FRET); settings: 110 uM ATP, 0.5 μM STK1 substrate
T1 construct: SIK1 kinase (aa1-303, Thermo Fisher); purchased Thermo Fisher
Outline: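 TR-FRET kinase assay with SIK1 (aa1-303), 110 uM ATP, 0.5 μM STK1 substrate and 0-10 μM compound in Tris pH 7.5 with MgCl2, EGTA, DTT, Triton X-100. Enzyme preincubated with compound 60 min, reaction 180 min at room temperature; 665/620 nm ratio after overnight detection; IC50 from four-parameter logistic fit.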

[2] = target: T2, SIK2 kinase (full length, Thermo Fisher) (Homo sapiens, UniProt Q9H0K1); assay: Biochemical activities determination for SIK2 protein (TR-FRET); settings: 80 uM ATP, 0.5 μM substrate
T2 construct: SIK2 kinase (full length, Thermo Fisher); purchased Thermo Fisher
T2 sequence (Q9H0K1 whole entry): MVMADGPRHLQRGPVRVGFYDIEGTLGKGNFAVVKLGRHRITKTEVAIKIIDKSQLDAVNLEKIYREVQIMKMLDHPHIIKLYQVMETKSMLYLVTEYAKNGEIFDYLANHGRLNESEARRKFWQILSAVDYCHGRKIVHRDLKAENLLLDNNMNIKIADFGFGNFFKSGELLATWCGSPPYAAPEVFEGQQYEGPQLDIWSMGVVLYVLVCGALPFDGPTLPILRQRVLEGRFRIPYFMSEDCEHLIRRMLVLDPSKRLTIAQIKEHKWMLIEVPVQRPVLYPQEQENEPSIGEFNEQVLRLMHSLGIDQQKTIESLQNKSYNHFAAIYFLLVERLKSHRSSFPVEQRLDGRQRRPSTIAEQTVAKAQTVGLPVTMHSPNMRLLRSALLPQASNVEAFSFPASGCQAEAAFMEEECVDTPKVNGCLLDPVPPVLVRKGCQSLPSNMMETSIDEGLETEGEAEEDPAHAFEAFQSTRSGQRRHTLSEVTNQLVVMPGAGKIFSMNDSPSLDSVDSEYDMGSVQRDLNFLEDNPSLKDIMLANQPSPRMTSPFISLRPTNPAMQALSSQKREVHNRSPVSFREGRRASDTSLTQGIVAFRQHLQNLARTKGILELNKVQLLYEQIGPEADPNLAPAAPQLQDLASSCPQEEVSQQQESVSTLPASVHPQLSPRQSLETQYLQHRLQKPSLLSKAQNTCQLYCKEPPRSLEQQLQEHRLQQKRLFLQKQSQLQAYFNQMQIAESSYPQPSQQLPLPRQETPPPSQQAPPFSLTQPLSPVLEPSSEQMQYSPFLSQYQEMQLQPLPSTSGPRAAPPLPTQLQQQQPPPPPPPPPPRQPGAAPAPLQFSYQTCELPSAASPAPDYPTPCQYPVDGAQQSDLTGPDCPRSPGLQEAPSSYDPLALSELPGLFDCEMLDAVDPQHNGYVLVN
Outline: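 Full-length SIK2 preincubated 60 min with 0–10 μM compound, then reacted 180 min at room temperature with 80 uM ATP and 0.5 μM biotinylated substrate (pH 7.5 Tris/MgCl2 buffer). Phosphorylation detected by TR-FRET (665/620 nm ratio, cryptate antibody/streptavidin-XL665) after overnight incubation; IC50 from four-parameter logistic fit.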

[3] = target: T3, SIK3 kinase (aa59-365, Thermo Fisher) (Homo sapiens, UniProt Q9Y2K2); assay: Biochemical activities determination for SIK3 protein (TR-FRET); settings: 125 uM ATP, 0.5 μM STK1 substrate
T3 construct: SIK3 kinase (aa59-365, Thermo Fisher); purchased Thermo Fisher
T3 sequence (Q9Y2K2 59-365): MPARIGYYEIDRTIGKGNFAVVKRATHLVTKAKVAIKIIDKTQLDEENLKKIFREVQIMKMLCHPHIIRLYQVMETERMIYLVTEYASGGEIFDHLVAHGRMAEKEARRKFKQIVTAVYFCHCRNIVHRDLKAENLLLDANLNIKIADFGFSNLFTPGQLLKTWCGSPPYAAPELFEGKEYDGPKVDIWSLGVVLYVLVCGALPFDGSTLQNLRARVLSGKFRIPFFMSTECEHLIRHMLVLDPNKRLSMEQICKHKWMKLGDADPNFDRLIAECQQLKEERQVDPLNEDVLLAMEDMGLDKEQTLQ
Outline: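 SIK3 (aa59-365) was preincubated with compound (0-10 μM) for 60 min at room temperature in Tris buffer pH 7.5. The reaction was then started with 125 uM ATP and 0.5 μM STK1 substrate and run 180 min at room temperature. Phospho-substrate was detected by HTRF (665/620 nm ratio), and IC50 came from a four-parameter logistic fit.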

T1 sequence (P57059 1-303): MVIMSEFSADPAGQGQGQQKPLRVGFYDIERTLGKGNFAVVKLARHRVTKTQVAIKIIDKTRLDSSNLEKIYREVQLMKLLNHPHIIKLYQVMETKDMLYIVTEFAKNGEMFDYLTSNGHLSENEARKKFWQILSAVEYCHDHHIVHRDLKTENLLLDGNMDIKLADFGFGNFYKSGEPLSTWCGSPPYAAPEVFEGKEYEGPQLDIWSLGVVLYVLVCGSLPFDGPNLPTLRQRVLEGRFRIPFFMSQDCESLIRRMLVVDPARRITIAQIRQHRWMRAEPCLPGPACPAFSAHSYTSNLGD

Compound | IC50 [1] [nM] | IC50 [2] [nM] | IC50 [3] [nM]
COc1cc(-c2coc3cc(-c4cnn(C)c4)ccc23)cc(OC(F)F)c1C(=O)NC1CC1 [Compound 132, N-cyclopropyl-2-(difluoromethoxy)-6-methoxy-4-(6-(1-methyl-1H-pyrazol-4-yl)benzofuran-3-yl)benzamide] | 124 | 13 | 15
COc1cc(-c2coc3cc(-c4ccc(C)nn4)ccc23)cc(OC(F)F)c1C(=O)NC1CC1 [Compound 133, N-cyclopropyl-2-(difluoromethoxy)-6-methoxy-4-(6-(6-methylpyridazin-3-yl)benzofuran-3-yl)benzamide] | > 10000 | 199 | 199
NC1CCN(c2cccc3ccc(-c4coc5cc(OCCN6CCOCC6)ccc45)nc23)CC1 [Compound 134, 1-(2-(6-(2-morpholinoethoxy)benzofuran-3-yl)quinolin-8-yl) piperidin-4-amine] | 958 | 66 | 156
COc1cc(-c2coc3cc(-c4cnn(C)c4)ccc23)cc2c1C(=O)N(CC(F)(F)F)CC2 [Example 1, 8-methoxy-6-(6-(1-methyl-1H-pyrazol-4-yl)benzofuran-3-yl)-2-(2,2,2-trifluoroethyl)-3,4-dihydroisoquinolin-1 (2H)-one] | 303 | 10 | 19
CCn1cc(-c2ccc3c(-c4cc5c(c(OC)c4)C(=O)N(CC(F)(F)F)CC5)coc3c2)cn1 [Example 2, 6-(6-(1-ethyl-1H-pyrazol-4-yl)benzofuran-3-yl)-8-methoxy-2-(2,2,2-trifluoroethyl)-3,4-dihydroisoquinolin-1 (2H)-one] | 375 | 15 | 28
COc1cc(-c2coc3cc(-c4cnn(C(C)C)c4)ccc23)cc2c1C(=O)N(CC(F)(F)F)CC2 [Example 3, 6-(6-(1-isopropyl-1H-pyrazol-4-yl)benzofuran-3-yl)-8-methoxy-2-(2,2,2-trifluoroethyl)-3,4-dihydroisoquinolin-1 (2H)-one] | 476 | 28 | 42
COc1cc(-c2coc3cc(-c4cnn(C5CC5)c4)ccc23)cc2c1C(=O)N(CC(F)(F)F)CC2 [Example 4, 6-(6-(1-cyclopropyl-1H-pyrazol-4-yl)benzofuran-3-yl)-8-methoxy-2-(2,2,2-trifluoroethyl)-3,4-dihydroisoquinolin-1 (2H)-one] | 728 | 37 | 53
COc1cc(-c2coc3cc(-c4cc(C)n[nH]4)ccc23)cc2c1C(=O)N(CC(F)(F)F)CC2 [Example 5, 8-methoxy-6-(6-(3-methyl-1H-pyrazol-5-yl)benzofuran-3-yl)-2-(2,2,2-trifluoroethyl)-3,4-dihydroisoquinolin-1 (2H)-one] | 538 | 33 | 41
CCOc1cncc(-c2ccc3c(-c4cc5c(c(OC)c4)C(=O)N(CC(F)(F)F)CC5)coc3c2)c1 [Example 6, 6-(6-(5-ethoxypyridin-3-yl)benzofuran-3-yl)-8-methoxy-2-(2,2,2-trifluoroethyl)-3,4-dihydroisoquinolin-1 (2H)-one] | > 10000 | 7460 | 1430
COc1cc(-c2coc3cc(-c4cn(C)cn4)ccc23)cc2c1C(=O)N(CC(F)(F)F)CC2 [Example 7, 8-methoxy-6-(6-(1-methyl-1H-imidazol-4-yl)benzofuran-3-yl)-2-(2,2,2-trifluoroethyl)-3,4-dihydroisoquinolin-1 (2H)-one] | 671 | 14 | 60

Continued, values first:

IC50 [1] [nM] | IC50 [2] [nM] | IC50 [3] [nM] | Compound
> 10000 | 197 | 304 | COc1cc(-c2coc3cc(-c4ccc(C)nn4)ccc23)cc2c1C(=O)N(CC(F)(F)F)CC2 [Example 8, 8-methoxy-6-(6-(6-methylpyridazin-3-yl)benzofuran-3-yl)-2-(2,2,2-trifluoroethyl)-3,4-dihydroisoquinolin-1 (2H)-one]
> 10000 | 296 | 334 | COc1ccc(-c2ccc3c(-c4cc5c(c(OC)c4)C(=O)N(CC(F)(F)F)CC5)coc3c2)cn1 [Example 9, 8-methoxy-6-(6-(6-methoxypyridin-3-yl)benzofuran-3-yl)-2-(2,2,2-trifluoroethyl)-3,4-dihydroisoquinolin-1 (2H)-one]
> 10000 | 418 | 187 | COc1cc(-c2coc3cc(-c4cnnc(C)c4)ccc23)cc2c1C(=O)N(CC(F)(F)F)CC2 [Example 10, 8-methoxy-6-(6-(6-methylpyridazin-4-yl)benzofuran-3-yl)-2-(2,2,2-trifluoroethyl)-3,4-dihydroisoquinolin-1 (2H)-one]
1550 | 49 | 155 | COc1cc(-c2coc3cc(-c4cnn(C)c4)cc(F)c23)cc2c1C(=O)N(CC(F)(F)F)CC2 [Example 11, 6-(4-fluoro-6-(1-methyl-1H-pyrazol-4-yl)benzofuran-3-yl)-8-methoxy-2-(2,2,2-trifluoroethyl)-3,4-dihydroisoquinolin-1 (2H)-one]
2280 | 59 | 186 | COc1cc(-c2coc3cc(-c4cnn(C)c4)c(F)cc23)cc2c1C(=O)N(CC(F)(F)F)CC2 [Example 12, 6-(5-fluoro-6-(1-methyl-1H-pyrazol-4-yl)benzofuran-3-yl)-8-methoxy-2-(2,2,2-trifluoroethyl)-3,4-dihydroisoquinolin-1 (2H)-one]
647 | 25 | 54 | Cn1cc(-c2ccc3c(-c4cc5c(c(OC(F)F)c4)C(=O)N(CC(F)(F)F)CC5)coc3c2)cn1 [Example 13, 8-(difluoromethoxy)-6-(6-(1-methyl-1H-pyrazol-4-yl)benzofuran-3-yl)-2-(2,2,2-trifluoroethyl)-3,4-dihydroisoquinolin-1 (2H)-one]
> 10000 | 310 | 329 | Cc1ccc(-c2ccc3c(-c4cc5c(c(OC(F)F)c4)C(=O)N(CC(F)(F)F)CC5)coc3c2)nn1 [Example 14, 8-(difluoromethoxy)-6-(6-(6-methylpyridazin-3-yl)benzofuran-3-yl)-2-(2,2,2-trifluoroethyl)-3,4-dihydroisoquinolin-1 (2H)-one]
